Experimental data taken from US4581231A (priority 1983, dated 1986).
Read-outs that look alike come from different tables or passages of the source.

Legend:
Avian influenza virus [1] = conditions: for Percent Inactivation: Influenza, dry state 20 min, Factor VIII
Vaccinia virus [2] = test system: Vaccinia virus
Vaccinia Virus [3] = conditions: 10% (v/v) chloroform
Avian influenza virus [4] = conditions: 10% (v/v) chloroform
Hepatitis B virus [5] = conditions: in vivo
Factor VIII:c = conditions: Factorate
Method: (§1) Lyophilized Factor VIII (Factorate--Armour) was extracted with chloroform using three different procedures.
(§2) A. 1 gram of Factorate (dry powder) was mixed at 4° C. for 20 minutes with 20 ml of cold chloroform. The chloroform was then removed by filtration and the dry powder was washed on the filter with an additional 10 ml of cold chloroform.
(§3) B. 1 gram of Factorate (dry powder) was mixed with 10 ml of cold chloroform at 4° C. for 10 minutes. The chloroform was removed by filtration and the powder was washed on the filter with 5 ml of cold chloroform. This process was then repeated a second time.
(§4) C. 1 gram of Factorate (dry powder) was mixed with 20 ml of chloroform at room temperature for 20 minutes. The chloroform was removed by filtration and the dry powder was washed on the filter with 10 ml of chloroform at room temperature.

Fibrinogen = conditions: Factorate
Method: as §1, §2, §3, §4

Fibronectin = conditions: Factorate
Method: as §1, §2, §3, §4

Polio Virus Type 1 = conditions: 10% (v/v) chloroform
[6] = test system: non-A, non-B hepatitis virus (H strain)
Vaccinia virus [7] = conditions: for inactivation of vaccinia virus: dry product 20 minutes, Factor 8; for Percent Inactivation: Vaccinia, dry state 20 min, Factor VIII
Hepatitis B virus [8] = test system: Hepatitis B virus; set-up: species or system rhesus monkeys; conditions: rhesus monkey, in vivo
[9] = preliminary, uncontrolled, 10^-2 dilution of H plasma, 5% v/v chloroform

Compound: ClC(Cl)Cl [Chloroform, chloroform]
- Percent Inactivation (Avian influenza virus [1]; 4° C.): 99.8%
- Percent Inactivation (Avian influenza virus [1]; 20° C.): 90%
- completeness of inactivation of avian influenza virus (Avian influenza virus [1]; dry product 20 minutes, Factor 8): inactivation was not complete
- inactivation of avian influenza virus (Avian influenza virus [1]; dry product 20 minutes, Factor 8, similar conditions of treatment): 90-99.8%
- inactivation of vaccinia virus (Vaccinia virus [2]; after 20 minutes, dry state, room temperature (20° C.)): 90%
- inactivation of vaccinia virus (Vaccinia virus [2]; after 2 hours, dry state, room temperature (20° C.)): 98%
- inactivation of vaccinia virus (Vaccinia virus [2]; after 4 hours or more, dry state, room temperature (20° C.)): completely inactivated
- inactivation of vaccinia virus (Vaccinia virus [2]; regardless whether in the liquid or dry state, longer time required when dry): completely inactivated
- Virus Titer Log10 ID50 /0.1 ml after CHCl3 extraction (Vaccinia Virus [3]; Vaccinia virus in Fetal Calf Serum, 1:100, 10 min, room temperature): ≤ 0.5 Log10 ID50 /0.1 ml
- reaction of control virus to chloroform treatment (Vaccinia Virus [3]; Vaccinia virus): totally inactivated
- reaction of control virus to chloroform treatment (Avian influenza virus [4]): totally inactivated
- anti-HBs / anti-HBc response (Hepatitis B virus [5]): did develop anti-HBs but not anti-HBc
- biochemical evidence of hepatitis (weekly ALT levels) (Hepatitis B virus [5]): none of these animals developed biochemical evidence of hepatitis
- Factor VIII Units/ml (Factor VIII:c; 4° C. 1 × Extracted (control 9.1)): 8.9 Units/ml
- Factor VIII Units/ml (Factor VIII:c; 4° C. 2 × Extracted (control 9.1)): 9.3 Units/ml
- Factor VIII Units/ml (Factor VIII:c; Room Temp. Extraction (control 9.1)): 9.5 Units/ml
- Fibrinogen (Fibrinogen; 4° C. 1 × Extracted (control 8.9 mg)): 9.3 mg/mL
- Fibrinogen (Fibrinogen; 4° C. 2 × Extracted (control 8.9 mg)): 8.6 mg/mL
- Fibrinogen (Fibrinogen; Room Temp. Extraction (control 8.9 mg)): 9.3 mg/mL
- Fibronectin (Fibronectin; 4° C. 1 × Extracted (control 1.11 mg)): 1.19 mg/mL
- Fibronectin (Fibronectin; 4° C. 2 × Extracted (control 1.11 mg)): 1.29 mg/mL
- Fibronectin (Fibronectin; Room Temp. Extraction (control 1.11 mg)): 1.14 mg/mL
- Virus Titer Log10 ID50 /0.1 ml after CHCl3 extraction (Polio Virus Type 1; Polio virus type 1 in Fetal Calf Serum, 1:100, 10 min, room temperature): 6.5 Log10 ID50 /0.1 ml
- reaction of control virus to chloroform treatment (Polio Virus Type 1; poliovirus): essentially unaffected
- inactivation of 10^4 chimpanzee infectious doses ([6]; 10^4 chimpanzee infectious doses of the H strain of NANB): inactivated
- evidence of hepatitis ([6]; chimpanzee 947, following either chloroform-treated or sham-treated H plasma): no evidence of hepatitis
- biochemical evidence of hepatitis (weekly ALT levels) ([6]; chimpanzees 889 and 947, chloroform-treated H plasma, 10% (v/v) chloroform): none of these animals developed biochemical evidence of hepatitis
- incubation period [6, 9]: 9.5 weeks
- infectivity after chloroform treatment [6, 9]: still infectious
- virus titer (indicated by incubation period) [6, 9]: reduced
- inactivation of vaccinia virus (Vaccinia virus [7]; 4°): not inactivated
- inactivation of vaccinia virus (Vaccinia virus [7]; 20° and 40° C.): partially inactivated
- Percent Inactivation (Vaccinia virus [7]; 4° C.): 0%
- Percent Inactivation (Vaccinia virus [7]; 20° C.): 70%
- Percent Inactivation (Vaccinia virus [7]; 40° C.): 70%
- inactivation of the virus (Hepatitis B virus [8]): inactivated
- Virus Titer Log10 ID50 /0.1 ml after CHCl3 extraction (coliphage .phi.×174): 9.0 Log10 ID50 /0.1 ml
- reaction of control virus to chloroform treatment (coliphage .phi.×174): essentially unaffected

Compound: CCOCC [ether, diethyl ether]
- inactivation of the virus (Hepatitis B virus [8]): inactivated
